{"source": "patent US12102642B2", "about": "“Treatment of hypercoagulopathy in Cushing's syndrome by administration of glucocorticoid receptor modulators” (Corcept Therapeutics Incorporated, priority 2018, dated 2024)", "key": {"[1]": {"test_system": "Cushing's syndrome patients", "experiment": "Clinical study of relacorilant in Cushing's syndrome patients (coagulation factors, inflammation markers, comorbidities)", "format": "in vivo, human", "source_text": "In TABLE 1 above, the P-value is a Wilcoxon Signed Rank P-value; mean change from baseline indicates the mean change from the initial (baseline) values to the last-observed values; Factor VIII values are reported as percent of normal values; platelet counts and eosinophil counts are reported as numbers of cells per liter; APTT indicates activated partial thromboplastin time, measured in seconds; and serum osteocalcin measures levels of the vitamin K-related hormone osteocalcin outside of bone. […] Relacorilant was administered to the patients once per day for four months. Two groups of Cushing's syndrome patients received relacorilant. Group 1 received 100 milligrams per day (mg/day) which, if tolerated, was raised to 200 mg/day for the 16 weeks of the study. Group 2 received relacorilant doses according to the following schedule: the starting doses were 250 milligrams (mg) per day of relacorilant for four weeks, followed by 300 mg/day relacorilant for the next four weeks, followed by 350 mg/day relacorilant for a further four weeks, and then 400 mg relacorilant for another four weeks. […] Factor VIII and von Willebrand Factor at baseline, prior to relacorilant administration (left-most pair of columns); after four weeks of relacorilant treatment (middle pair of columns); and after 3 or 4 months of relacorilant treatment (right-most pair of columns). Factor VIII levels are reduced, as compared to baseline, at week four and after 3 or 4 months of relacorilant treatment. […] The APTT of Group 2 patients receiving relacorilant was measured at baseline (before relacorilant administration) and after 16 weeks (or following the last relacorilant administration for those patients who […] the full 16 weeks of relacorilant administration). […] Increased APTT indicates an increase in the time for blood coagulation; that is, a reduction in hypercoagulation."}, "[2]": {"test_system": "Cushing's syndrome patients", "conditions": "see U.S. Patent Application 62/783,015; cited from earlier work"}, "[3]": {"conditions": "baseline to last-observed values, cells per liter"}, "[4]": {"conditions": "generally observed within two weeks of achieving a therapeutic dose"}}, "note": "“Also recorded” adds a separate entry of the source."}
{"smiles": "Cn1cc(S(=O)(=O)N2CCC3=Cc4c(cnn4-c4ccc(F)cc4)C[C@]3(C(=O)c3cc(C(F)(F)F)ccn3)C2)cn1", "note": "[relacorilant, (R)-(1-(4-fluorophenyl)-6-((1-methyl-1H-pyrazol-4-yl)sulfonyl)-4,4a,5,6,7,8-hexahydro-1H-pyrazolo[3,4-g]isoquinolin-4a-yl)(4-(trifluoromethyl)pyridin-2-yl)methanone]", "values": [{"measurement": "Coagulation profile (coagulation factors, thrombin-antithrombin) compared to baseline", "setting": "[1]; FIG. 2B", "value": "improved compared to baseline"}, {"measurement": "APTT compared to baseline", "setting": "[1]; Group 2 patients (250 to 400 mg/day), 12 patients, after 16 weeks or last administration (FIG. 2A), p-value 0.014", "value": "increased significantly"}, {"measurement": "Von Willebrand factor levels compared to baseline", "setting": "[1]; after 3 or 4 months of relacorilant treatment (FIG. 1A)", "value": "return to baseline levels"}, {"measurement": "C-Reactive protein levels compared to baseline", "setting": "[1]; after 3 or 4 months of relacorilant treatment (FIG. 3)", "value": "return to baseline levels"}, {"measurement": "Factor VIII levels compared to baseline", "setting": "[1]; after 3 or 4 months of relacorilant treatment, end of study (FIG. 1A)", "value": "reduced; also recorded: normalized"}, {"measurement": "Abnormally elevated coagulation factors caused by excess cortisol activity", "setting": "[1]; as early as after one month of treatment", "value": "Improvement/normalization"}, {"measurement": "Von Willebrand factor levels compared to baseline", "setting": "[1]; at four weeks of relacorilant treatment (FIG. 1A)", "value": "initially rise somewhat"}, {"measurement": "C-Reactive protein levels compared to baseline", "setting": "[1]; at four weeks of relacorilant treatment (FIG. 3)", "value": "initially rise somewhat"}, {"measurement": "Serum Osteocalcin, Mean Change from Baseline", "setting": "[1]; baseline to last-observed values", "value": 3.00, "unit": "µg/L"}, {"measurement": "Coagulopathy (APTT), Mean Change from Baseline", "setting": "[1]; baseline to last-observed values, activated partial thromboplastin time", "value": "+1.45 Seconds"}, {"measurement": "Coagulopathy (Platelets), Mean Change from Baseline", "setting": "[1]; [3]", "value": "−68.82 10^9/L"}, {"measurement": "Inflammation (eosinophils), Mean Change from Baseline", "setting": "[1]; [3]", "value": "0.05 10^9/L"}, {"measurement": "Coagulopathy (Factor VIII), Mean Change from Baseline", "setting": "[1]; baseline to last-observed values, percent of normal values, Cushing's syndrome patients, relacorilant once per day", "value": "−18.94", "unit": "%"}, {"measurement": "Thromboembolic events", "setting": "[1]; clinical study of 35 Cushing's syndrome patients treated with relacorilant", "value": "No thromboembolic events were observed"}, {"measurement": "Hyperglycemia", "setting": "[1]; [4]", "value": "improvement"}, {"measurement": "Hypertension", "setting": "[1]; [4]", "value": "improvement"}, {"measurement": "Factor VIII levels compared to baseline", "setting": "[1]; week four of relacorilant treatment (FIG. 1A)", "value": "reduced"}, {"measurement": "Effect on cortisol", "setting": "[2]", "value": "not raising cortisol"}, {"measurement": "Risk of hypokalemia", "setting": "[2]", "value": "not increasing the risk of hypokalemia"}]}
